Results reported in patent publication EP0812190B1 (priority 1993, dated 1995).
Where a name gives a salt, the structure may show the parent alone. Read-outs that look alike come from different tables or passages of the source.

What was measured:
[1] = system: haloperidol-induced catalepsy
Protocol: (+)PAI mesylate, or racemic-PAI mesylate. All drugs were administered i.p. in a volume of 0.2 mL. Two hours later, haloperidol was injected s.c. at a dose of 6mg/kg in a volume of 0.1-0.2 mL. Motor coordination tests were made at 3 hours after giving haloperidol, that is, 5 hours after administering the presumed protective drugs.
Motor coordination tests and rigidity were quantified according to three different parameters: (a) ability to walk the length of a horizontal rod, 80 cm-long; (b) ability co climb down, face down, a vertical rod, 80 cm-long; (c) duration of immobility in an unnatural sitting posture whereby the abdomen of the mouse is pressed against a "wall." Full performance as in haloperidol-untreated mice is given the score of 4 in each test, or a total of 12 in all tests. Poor performance is given a score from 1 to 3.

[2] = system: heart rate, blood pressure, cardiovascular effects of tyramine; settings: cited from earlier work
[3] = molecular target: T1, MAO-B (Rattus norvegicus, UniProt P19643); assay: in vivo; settings: rat
T1 sequence (P19643 1-520): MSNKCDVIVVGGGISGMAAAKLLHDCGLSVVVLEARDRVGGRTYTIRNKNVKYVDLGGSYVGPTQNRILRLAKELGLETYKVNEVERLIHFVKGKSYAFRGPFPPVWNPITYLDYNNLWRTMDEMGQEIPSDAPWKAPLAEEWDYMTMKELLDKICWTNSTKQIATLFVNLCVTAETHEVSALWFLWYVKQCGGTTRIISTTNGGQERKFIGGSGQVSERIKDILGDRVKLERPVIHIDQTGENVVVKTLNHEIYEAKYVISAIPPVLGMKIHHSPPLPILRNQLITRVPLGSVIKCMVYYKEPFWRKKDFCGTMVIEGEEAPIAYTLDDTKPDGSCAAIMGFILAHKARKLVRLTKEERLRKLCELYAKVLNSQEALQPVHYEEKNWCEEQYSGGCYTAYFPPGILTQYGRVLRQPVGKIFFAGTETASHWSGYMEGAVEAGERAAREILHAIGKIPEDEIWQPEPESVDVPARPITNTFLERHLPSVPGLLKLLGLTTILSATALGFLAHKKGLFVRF
Protocol: Groups of three rats were used for each dose level of inhibitor, and MAO activity determined in brain and liver using the general technique described above. The amount of protein in each incubation was determined using the Folin-Lowry method, and enzyme activity calculated as nmol of substrate metabolized per hour of incubation for each mg of protein. Activity of MAO in tissues from animals treated with inhibitors was expressed as a percentage of the enzyme activity in a group of control animals administered vehicle (water for oral administration, 0.9% saline for ip injection) and killed as above.

[4] = molecular target: T2, MAO-A (Rattus norvegicus, UniProt P21396); assay: Inhibition of MAO activity in vivo, acute treatment, MAO-A; parameters: MAO activity determined in brain and liver using the general technique described above; from tissue; host or cells: brain and liver of treated rats; settings: dose producing 50% inhibition, rat
T2 sequence (P21396 1-526): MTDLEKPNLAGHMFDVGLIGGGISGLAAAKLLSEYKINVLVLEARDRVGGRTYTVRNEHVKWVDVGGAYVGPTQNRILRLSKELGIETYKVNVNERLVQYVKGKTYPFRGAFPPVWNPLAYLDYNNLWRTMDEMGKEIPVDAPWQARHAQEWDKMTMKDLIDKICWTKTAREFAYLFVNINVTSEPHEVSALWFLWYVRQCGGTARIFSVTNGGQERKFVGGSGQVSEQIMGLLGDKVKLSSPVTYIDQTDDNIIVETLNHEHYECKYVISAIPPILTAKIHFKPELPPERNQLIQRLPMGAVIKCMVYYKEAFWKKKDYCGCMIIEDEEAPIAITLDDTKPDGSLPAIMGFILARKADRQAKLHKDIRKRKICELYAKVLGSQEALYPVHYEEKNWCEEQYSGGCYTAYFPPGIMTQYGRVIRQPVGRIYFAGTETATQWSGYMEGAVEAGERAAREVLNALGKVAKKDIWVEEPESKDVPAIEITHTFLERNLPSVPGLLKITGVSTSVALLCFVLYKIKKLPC

[5] = molecular target: T1, MAO-B; assay: Rat brain MAO inhibition by propargylamines (Table IA), MAO-B; assay type: biochemical; parameters: in a rat brain preparation of MAO; from tissue; host or cells: rat brain preparation; settings: ratio MAO-A / MAO-B for one epimer
[6] = system: MPTP-induced striatal dopamine depletions; assay: Suppression of MPTP-induced dopaminergic toxicity (striatal DA and DOPAC); assay type: in vivo, mice; settings: striatum
Protocol: Brains were removed and corpora striata dissected on an ice-cold glass plate and frozen on dry ice. Striatal tissues were homogenized in 0.1 M perchloric acid, and deproteinized aliquots containing dihydroxybenzylamine as an internal standard were assayed for dopamine and its major metabolite 3,4-dihydroxy-phenylacetic acid (DOPAC) using HPLC with electrochemical detection.

[7] = system: rabbit jejunum; assay: Tyramine potentiation in rabbit jejunum preparation
[8] = system: NMDA-induced cell death of cerebellum cells; assay: cells; settings: Rattus norvegicus, 24 h
Protocol: Procedures: Cultures of mechanically dissociated neonatal rat cerebellum. […] The cerebella are then dissociated after 20-25 passages through a sterile 13 gauge, 10 cm long stainless steel needle attached to a 5 ml syringe with an inserted 45 µm pore size nylon sieve. The dissociated cells are centrifuged at 200g for 5 minutes, the supernatant discarded and the cells resuspended in enriched medium. The cell viability is determined by the trypan blue exclusion test. […] After 4 days in culture, the media are replaced with media containing the desired test compounds. Experiments are done in duplicate and repeated 2 or 3 times. […] Nerve cell survival is evaluated by phase contrast microscopy and trypan blue staining after 24 h.

[9] = system: guinea-pig ileum; assay: tissue or blood; settings: Cavia porcellus, read-out: Percent relaxation
[10] = system: guinea-pig ileum
[11] = system: guinea-pig ileum; assay: tissue or blood; settings: Cavia porcellus, read-out: Percent relaxation; remark: listed apart in the source
[12] = system: amphetamine-induced stereotype behavior; settings: control senescent rats; 0.5 mg/kg/day in drinking water; lateral head movements over 1 minute, 45 min after amphetamine 0.5 mg/kg s.c.
Protocol: The extent of this behavior is rated in accordance with the number of lateral head movements over a period of 1 minute.
Following that, amphetamine was injected s.c. at a dose of 0.5 mg/kg. 45 minutes later, lateral head movements were counted.

[13] = system: α-MpT-induced hypokinesia; assay: Reversal of α-MpT-induced hypokinesia in rats; assay type: in vivo; settings: α-MpT 100 mg/kg i.p. alone
Protocol: The drug α-MpT is assumed to inhibit the formation of L-DOPA from tyrosine, and consequently the formation of dopamine itself. Lack of CNS dopamine is expressed as hypoactivity. Six month-old male Wistar rats (from Harlan Orkack, UK) were pretreated with saline, [R] […] Two hours later they received i.p. α-MpT at a dose of 100 mg/kg in 0.3-0.5 mL. Controls received saline. Following this, motor activity was recorded in a computerized activity cage for the duration of 10 hours. […] (+)PAI Mesylate at 2 mg/kg.

[14] = Comparative stability: visual inspection of color and form; assay type: physicochemical
Protocol: Comparative stability studies were carried out under sets of several accelerating conditions: I) heating at 80°C for 72, 96 or 144 hours; and II) reflux in isopropanol for 30 hours. The degradation products developed were measured by HPLC and confirmed by TLC. The results are presented in Table 9 with the relative retention time (relative to the PAI peak; RRT) as an area percentage relative to total integrated peak area.
The salts were submitted to visual inspection of color and form.

[15] = Thermo-gravimetric analysis of PAI salts; assay type: physicochemical; settings: 10°C/min
Protocol: (§1) The melting range was measured with an automatic apparatus (Mettler FP 80) and thermo-gravimetric analysis was performed on a Mettler TA 3000 system at a rate of 10°C/min in the applicable range. […] The pH was measured in a 1% aqueous solution of the PAI salts.

[16] = pH of 1% aqueous solution of PAI salts; assay type: physicochemical
Protocol: as §1

[17] = comparative animal tests versus (-)-deprenyl

C#CCNC1CCc2ccccc21 (racemic) [Rac PAI Mesylate, reference compound]
Score+SE ([1]; 5.0 mg/kg i.p., listed as Racemic PAI mesylate): not active

C#CCNC1CCc2ccccc21 (racemic) [Rac, N-propargyl-1-aminoindan, reference compound]
blood pressure [2, 17]: does not increase blood pressure
tachycardia [2, 17]: no significant tachycardia
IC-50 MAO-B P.O. BRAIN ([3]; dose producing 50% inhibition, p.o., 2h): 0.29 mg/kg
ED50 ([3]; ip, 1 h, read-out: IC-50 MAO-B I.P. BRAIN): 0.22 mg/kg
ED50 ([3]; ip, 1 h, read-out: IC-50 MAO-B I.P. LIVER): 0.11 mg/kg
ED50 ([3]; po, 2 h, read-out: IC-50 MAO-B P.O. LIVER): 0.09 mg/kg
IC-50 MAO-A I.P. BRAIN ([4]; i.p., 1h): 2.5 mg/kg
IC-50 MAO-A I.P. LIVER ([4]; i.p., 1h): 5 mg/kg
IC-50 MAO-A P.O. BRAIN ([4]; p.o., 2h): >5 mg/kg
IC-50 MAO-A P.O. LIVER ([4]; p.o., 2h): >5 mg/kg

C#CCNC1CCc2ccccc21 (racemic) [racemic PAI·HCl, Racemic N-propargyl-1-aminoindan hydrochloride]
potentiation of the cardiovascular effects of tyramine ([2]; in vivo): does not potentiate the cardiovascular effects of tyramine

C#CCN(C)C1CCCc2ccccc21 (single isomer, unassigned) [2-MPAI +, N-Methyl-N-propargyl-1-aminotetralin]
RELATIVE POTENCY A/B [5]: 8.8

C#CCN(C)C1CCCc2ccccc21 (single isomer, unassigned) [2-MPAI -, N-Methyl-N-propargyl-1-aminotetralin]
RELATIVE POTENCY A/B [5]: 0.5

C#CCNC1CCCc2ccccc21 (centres unmarked) [1-PAT R, N-propargyl-1-aminotetralin]
RELATIVE POTENCY A/B [5]: 10

C#CCNC1CCCc2ccccc21 (centres unmarked) [1-PAT S, N-propargyl-1-aminotetralin]
RELATIVE POTENCY A/B [5]: 76

O=C(CCCN1CCC(O)(c2ccc(Cl)cc2)CC1)c1ccc(F)cc1 [Haloperidol, reference compound]
Score+SE ([1]; haloperidol 6mg/kg s.c. alone, 3 hours after): 6.6±0.3
Score+SE ([1]; haloperidol 6mg/kg s.c. alone, 3 hours after, listed as haloperidol): 6.6±0.03

CN1CC=C(c2ccccc2)CC1 [MPTP, 1-Methyl-phenyl-1,2,3,6-tetrahydropyridine]
DA ([6]; MPTP-HCl 30 mg/kg s.c. alone): 53.1±6.2 ng/mg protein
DOPAC ([6]; MPTP-HCl 30 mg/kg s.c. alone): 3.2±0.3 ng/mg protein

NC[C@H](O)c1ccc(O)c(O)c1 [Norepiniphrine]
Percent relaxation ([7]; 0.002 µM): 100%

NCCCNCCCCNCCCN [Spermine, reference compound]
inhibition at 0.01 µM ([8]; read-out: Percent Protection): 65%
viability at 0.01 µM ([8]; read-out: Surviving Cells): 75%

NCCc1ccc(O)cc1 [Tyramine]
Percent relaxation ([7]; tyramine alone 40 µM): 0%

C#CCN[C@H]1CCc2ccccc21 [[S](-)PAI, S-(-)-N-propargyl-1-aminoindan, reference compound]
inhibition at 60 µM [9]: 60 to 70%
inhibition at 300 µM [9]: 100%
Percent relaxation ([7]; PAI HCl enantiomer alone 0.2-4.0 µM): 0%
Percent relaxation ([7]; tyramine 40 µM after 0.2 µM PAI HCl enantiomer): 0%
Percent relaxation ([7]; tyramine 40 µM after 2 µM PAI HCl enantiomer): 35%
Percent relaxation ([7]; tyramine 40 µM after 40 µM PAI HCl enantiomer): 33-50%
gram-tension ([10]; bethanechol 0.8 µM, 400 µM PAI HCl enantiomer): 0 gram-tension
gram-tension ([10]; bethanechol 2 µM, 400 µM enantiomer): 0 gram-tension
gram-tension ([10]; bethanechol 4 µM, 400 µM enantiomer): 0 gram-tension
gram-tension ([10]; bethanechol 20 µM, 400 µM enantiomer): 1.2 gram-tension
gram-tension ([10]; bethanechol 80 µM, 400 µM enantiomer): 2.6 gram-tension
gram-tension ([10]; bethanechol 200 µM, 400 µM enantiomer): 2.6 gram-tension
inhibition at 2 µM [11]: 11%
inhibition at 30 µM [11]: 33%
inhibition at 40 µM [11]: 36%
inhibition at 200 µM [11]: 90%
inhibition at 400 µM [11]: 98%
inhibition at 1000 µM [11]: 100%
Stereotype Behavior Rating [12]: totally inactive
DOPAC ([6]; drug alone (PAI isomers […] i.p., deprenyl 5 mg/kg i.p.)): 7.5±0.2 ng/mg protein
DA ([6]; drug alone (PAI isomers […] i.p., deprenyl 5 mg/kg i.p.), Mean±S.E.M.): 174.0±4.8 ng/mg protein
DA ([6]; pretreatment one hour before MPTP-HCl 30 mg/kg s.c. (PAI isomers […] i.p., deprenyl 5 mg/kg i.p.), 5 days later): 53.4±6.9 ng/mg protein
DOPAC ([6]; pretreatment one hour before MPTP-HCl 30 mg/kg s.c., 5 days later): 7.0±0.6 ng/mg protein

CC(N)(Cc1ccc(O)cc1)C(=O)O (stereo not drawn) [α-Mpt, α-methyl-p-tyrosine, reference compound]
% of control [13]: 51%
Score (total motor activity, 10 hours) [13]: 8,108±810

chloride
appearance ([14]; 80°C/72h): white powder
appearance ([14]; 80°C/144h): white powder
appearance ([14]; reflux in iPrOH/30h): off white powder

fumarate
%Wt. loss [15]: 0.2%
Solubility (water): 95 mg/mL
pH [16]: 3.5

maleate
%Wt. loss [15]: 0.1%
appearance ([14]; 80°C/72h): brown melted
appearance ([14]; 80°C/96h): brown
appearance ([14]; reflux in iPrOH/30h): brown melted
Solubility (water): NLT 1000 mg/ml

phosphate
appearance ([14]; 80°C/72h): brownish powder
appearance ([14]; 80°C/144h): brown powder
appearance ([14]; reflux in iPrOH/30h): brown powder

sulphate
appearance ([14]; 80°C/72h): off white powder
appearance ([14]; 80°C/144h): off white powder
appearance ([14]; reflux in iPrOH/30h): brown powder

tartarate
%Wt. loss [15]: LT 0.1%
pH [16]: 5.5

tosylate
%Wt. loss [15]: LT 0.1%
Solubility (saturated salt water solution): 60 to 70 mg/mL
pH [16]: 4.4
